Laboratory results from PMC6271944 (Molecules, 2014).
pIC50: −log10 of the molar value.

Experiments:
CYP2C19 = target: T1, CYP2C19 (Homo sapiens, UniProt P33261); assay: CYP inhibition in human liver microsomes, substrate cocktail, LC-MS/MS (S-mephenytoin); format: in vitro ADME; details: metabolite 4-hydroxymephenytoin, 95% CI in brackets, read-out: IC50 for HLM, CYP2C19
T1 construct: Pooled human liver microsomes (HLM, LOT 32556) were purchased from BD Gentest Corporation; tissue BD Gentest Corporation LOT 32556; host or cells: pooled human liver microsomes
T1 sequence (P33261 whole entry): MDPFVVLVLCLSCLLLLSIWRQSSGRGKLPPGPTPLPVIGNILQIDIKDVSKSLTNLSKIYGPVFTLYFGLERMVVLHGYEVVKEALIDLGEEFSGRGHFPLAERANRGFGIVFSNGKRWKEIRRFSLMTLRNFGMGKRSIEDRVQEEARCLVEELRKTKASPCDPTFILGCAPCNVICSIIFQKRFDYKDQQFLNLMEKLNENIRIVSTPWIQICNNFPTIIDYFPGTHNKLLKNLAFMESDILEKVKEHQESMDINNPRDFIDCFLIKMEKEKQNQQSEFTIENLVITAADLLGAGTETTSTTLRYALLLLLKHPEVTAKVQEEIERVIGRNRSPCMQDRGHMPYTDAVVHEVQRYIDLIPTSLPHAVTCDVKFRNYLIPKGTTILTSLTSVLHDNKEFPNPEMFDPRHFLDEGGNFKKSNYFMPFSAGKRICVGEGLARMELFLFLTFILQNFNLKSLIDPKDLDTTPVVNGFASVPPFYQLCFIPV
From the text: (§1) Positive controls (furafyline for CYP1A2, montelukast for CYP2C8, sulfaphenazole for CYP2C9, S-(+)-N-3-benzylnirvanol for CYP2C19, quinidine for CYP2D6, ketoconazole for CYP3A4) and specific substrates (phenacetin for CYP1A2, paclitaxel for CYP2C8, diclofenac for CYP2C9, S-mephenytoin for CYP2C19, dextromethorphan for CYP2D6, midazolam for CYP3A4) are consistent with our previous papers. The substrates were used at concentrations approximately equal to their respective Michaelis-Menten constant (Km) values: 10 μM phenacetin, 5 μM paclitaxel, 5 μM diclofenac, 200 μM S-mephenytoin, 5 μM dextromethorphan, and 2 μM midazolam. NADP^+ was added after a 15 min preincubation of all other components at 37 °C. After a given incubation time (30 min), the reactions were terminated by addition of 60 μL ice-cold acetonitrile containing gemfibrozil and buspirone as internal standards. Incubation samples were stored at −80 °C until used in liquid chromatography-tandem mass spectrometry (LC-MS/MS) analysis. The mixture was centrifuged at 3,500 rpm for 5 min. The supernatant was mixed with equal volume of a 1:1 mixture of methanol and water and 20 μL of the final mixture was used for LC-MS/ MS analysis. […]
(§2) The CYP inhibition potential were evaluated by measuring the formation of one or more metabolites of the test substrates. […]

CYP2C7 = target: T2, CYP2C7 (Rattus norvegicus, UniProt P05179); assay: CYP inhibition in rat liver microsomes, substrate cocktail, LC-MS/MS (paclitaxel); format: in vitro ADME; details: 95% CI in brackets, read-out: IC50 for RLM, CYP2C7 (table row CYP2C8)
T2 construct: Pooled rat liver microsomes were prepared from three male Sprague-Dawley rats; from tissue; host or cells: pooled liver microsomes of three male Sprague-Dawley rats, prepared at HD Biosciences Co
T2 sequence (P05179 1-490): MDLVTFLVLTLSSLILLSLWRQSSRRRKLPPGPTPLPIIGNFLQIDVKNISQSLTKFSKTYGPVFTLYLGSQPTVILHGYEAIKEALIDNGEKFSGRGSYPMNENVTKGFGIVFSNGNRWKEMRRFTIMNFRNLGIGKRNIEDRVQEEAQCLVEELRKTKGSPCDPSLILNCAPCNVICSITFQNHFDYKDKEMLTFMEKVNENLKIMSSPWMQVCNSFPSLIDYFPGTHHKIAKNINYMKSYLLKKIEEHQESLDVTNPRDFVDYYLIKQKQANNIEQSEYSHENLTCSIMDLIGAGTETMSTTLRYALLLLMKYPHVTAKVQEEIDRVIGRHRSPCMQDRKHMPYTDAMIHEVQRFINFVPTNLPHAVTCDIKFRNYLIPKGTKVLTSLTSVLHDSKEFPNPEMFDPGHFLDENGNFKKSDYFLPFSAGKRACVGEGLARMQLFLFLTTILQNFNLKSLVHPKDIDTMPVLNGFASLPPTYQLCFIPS
From the text: as §1, §2

UGT1A6 = system: UGT1A6; design: dose or concentration left out as unconfirmed; details: cited from earlier work
CYP1A2 = target: T3, CYP1A2 (Rattus norvegicus, UniProt P04799); assay: CYP inhibition in rat liver microsomes, substrate cocktail, LC-MS/MS (phenacetin); format: in vitro ADME; design: Pooled rat liver microsomes were prepared from three male Sprague-Dawley rats; from tissue; host or cells: pooled liver microsomes of three male Sprague-Dawley rats, prepared at HD Biosciences Co; details: read-out: IC50 for RLM, CYP1A2
T3 sequence (P04799 1-513): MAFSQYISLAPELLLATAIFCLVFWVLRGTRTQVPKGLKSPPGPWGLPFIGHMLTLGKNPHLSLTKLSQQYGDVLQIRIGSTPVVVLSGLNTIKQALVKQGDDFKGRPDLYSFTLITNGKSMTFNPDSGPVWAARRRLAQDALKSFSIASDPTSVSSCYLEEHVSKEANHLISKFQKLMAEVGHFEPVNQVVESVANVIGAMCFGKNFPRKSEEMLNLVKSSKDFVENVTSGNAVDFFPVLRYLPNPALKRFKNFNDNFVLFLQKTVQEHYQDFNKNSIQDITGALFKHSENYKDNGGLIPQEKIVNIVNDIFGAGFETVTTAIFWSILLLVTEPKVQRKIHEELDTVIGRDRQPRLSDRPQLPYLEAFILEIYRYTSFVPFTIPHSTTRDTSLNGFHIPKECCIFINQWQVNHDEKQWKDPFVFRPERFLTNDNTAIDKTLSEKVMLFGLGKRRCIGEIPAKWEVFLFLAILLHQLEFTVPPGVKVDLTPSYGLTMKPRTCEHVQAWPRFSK
From the text: as §1, §2

## O=C(O)[C@H]1O[C@@H](Oc2cc3oc(-c4ccc(O)cc4)cc(=O)c3c(O)c2O)[C@H](O)[C@@H](O)[C@@H]1O [scutellarin, Scutellarin]
CYP2C19
  pIC50: 4.20
CYP2C7
  pIC50: 4.20
UGT1A6
  inhibition towards the activity of UGT1A6: 20.2%
CYP1A2
  pIC50: < 4.00
